# Values quoted from earlier work in US20120315265A1, “HYDROGEL-FORMING POLYMER, AND PREPARATION PROCESS AND USES THEREOF” (CHANG GUNG UNIVERSITY, priority 2011, published 2012).
# Tests used:
# [1] = in vivo
# [2] = in the anterior chamber
structure (smiles),measurement,setting,value
CC[C@@H]1C(=O)OC[C@@H]1Cc1cncn1C [pilocarpine],duration of pupillary constriction,[1],up to 8 hour
same,effective therapeutic dose for IOP reduction,[2],10 to 33 µg/mL
